ChEMBL document CHEMBL6182916, “Unexpected Discovery of a Novel Triphenylphosphonium Alkylalcohol That Triggers Cancer Cell Death via Mitophagy and Ferroptosis” (J Med Chem, 2025)
Active and inactive are the calls of the source. The rule behind the calls is not given here.

Tests used:
A-375 [1] = experiment: Anticancer activity against human A-375 cells assessed as inhibition of cell growth by MTT assay; format: functional, cell-based
[2] = Drug localization in mitochondria of human HCC827 cells assessed as increase in green fluorescence by measuring pearson correlation coefficient at 10 uM incubated for 10 mins by mito-tracker green dye based confocal scanning microscopy analysis; format: ADME; details: hcc827, 10 min
[3] = Drug uptake in human HCC827 cells mitochondria assessed as increase in fluorescence intensity at 10 uM by fluorescence emission spectroscopy analysis; format: ADME; details: hcc827, 10 µM
[4] = Drug metabolism in human HCC827 cells mitochondria assessed as 2-(2-(4-hydroxystyryl)-4H-chromen-4-ylidene)malononitrile hydrolysis at 10 uM incubated for 5 mins by fluorescence emission spectroscopy analysis; format: ADME; details: hcc827, 5 min
[5] = Drug localization in mitochondria of human HCC827 cells assessed as increase in green fluorescence by measuring pearson correlation coefficient at 5 uM incubated for 10 mins by mito-tracker green dye based confocal scanning microscopy analysis; format: ADME; details: hcc827, 10 min
[6] = system: Osimertinib-resistant NCI-H1975 cell; experiment: Antiproliferative activity against human Osimertinib-resistant NCI-H1975 cell assessed as inhibition of cell growth measured after 72 hrs by MTT assay; format: functional, cell-based
HCC827 [7] = experiment: Induction of ROS generation in human HCC827 cells assessed as decrease in NADH content at 1 uM incubated for 4 hrs by absorbance based analysis; format: functional, cell-based
HCC827 [8] = experiment: Induction of apoptosis in human HCC827 cells assessed as early apoptotic cells at 1 uM measured after 48 hrs by annexin V and PI staining based flow cytometry analysis (reference value: 0.70%); format: functional
MCF7 = experiment: Antiproliferative activity against human MCF7 cells assessed as inhibition of cell growth measured after 72 hrs by MTT assay; format: functional, cell-based; details: MCF7, 72 h
Mitochondrial membrane = experiment: Induction of mitochondrial membrane depolarization in human HCC827 cells assessed as increase in J-monomer ratio at 0.5 uM incubated for 4 hrs by JC-1 staining based flow cytometric analysis; format: cell membranes
HCC827 [9] = experiment: Induction of apoptosis in human HCC827 cells assessed as necrotic cells at 1 uM measured after 48 hrs by annexin V and PI staining based flow cytometry analysis (reference value: 1.18%); format: functional
HCC827 [10] = experiment: Induction of cell cycle arrest in human HCC827 cells assessed as accumulation of cells at G2 phase at 0.4 uM incubated for 24 hrs by PI staining based flow cytometry analysis (reference value: 7.15%); format: functional
MDA-MB-231 = experiment: Antiproliferative activity against human MDA-MB-231 cells assessed as inhibition of cell growth measured after 72 hrs by MTT assay; format: functional, cell-based; details: MDA-MB-231, 72 h
NCI-H1299 = experiment: Antiproliferative activity against human NCI-H1299 cells assessed as inhibition of cell growth measured after 72 hrs by MTT assay; format: functional, cell-based; details: NCI-H1299, 72 h
[11] = Drug accumulation in mitochondria of human HCC827 cells at 10 uM incubated for 5 mins; format: ADME; details: hcc827, 5 min
A549 = experiment: Antiproliferative activity against human A549 cells assessed as inhibition of cell growth measured after 72 hrs by MTT assay; format: functional, cell-based; details: A549, 72 h
HCC827 [12] = experiment: Induction of cell cycle arrest in human HCC827 cells assessed as accumulation of cells at G1 phase at 0.4 uM incubated for 24 hrs by PI staining based flow cytometry analysis (reference value: 66.44%); format: functional
HCC827 [13] = experiment: Induction of mitochondrial dysfunction in human HCC827 cells assessed as cytochrome C release in cytoplasm at 1 uM measured after 72 hrs by laser scanning confocal fluorescence microscopic analysis; format: functional, cell-based
HCC827 [14] = experiment: Inhibition of colony formation in human HCC827 cells at 0.2 uM incubated for 72 hrs by crystal violet staining based analysis; format: functional, cell-based
[15] = Antiproliferative activity against HEK293T cells assessed as inhibition of cell growth measured after 72 hrs by MTT assay; format: toxicity, cell-based, HEK-293T; details: human
HCC827 [16] = experiment: Induction of apoptosis in human HCC827 cells assessed as late apoptotic cells at 1 uM measured after 48 hrs by annexin V and PI staining based flow cytometry analysis (reference value: 1.29%); format: functional
HCC827 [17] = experiment: Induction of ROS generation in human HCC827 cells assessed as increase in NAD+/NADH ratio at 1 uM incubated for 4 hrs by absorbance based analysis; format: functional, cell-based
[18] = Drug accumulation in mitochondria of human HCC827 cells at 10 uM incubated for 10 mins in presence of CCCP by RP-HPLC-UV analysis; format: ADME; details: hcc827, 10 min
A-375 [19] = experiment: Antiproliferative activity against human A-375 cells assessed as inhibition of cell growth measured after 72 hrs by MTT assay; format: functional, cell-based; details: A-375, 72 h
SK-LU-1 = experiment: Antiproliferative activity against human SK-LU-1 cells assessed as inhibition of cell growth measured after 72 hrs by MTT assay; format: functional, cell-based; details: SK-LU-1, 72 h
[20] = Antiproliferative activity against human BEAS-2B cells assessed as inhibition of cell growth measured after 72 hrs by MTT assay; format: toxicity, cell-based
HCC827 [21] = experiment: Induction of apoptosis in human HCC827 cells assessed as viable cells at 1.0 uM measured after 48 hrs by annexin V and PI staining based flow cytometry analysis (reference value: 96.74%); format: functional; details: read-out: Activity
NCI-H1975 = experiment: Antiproliferative activity against human NCI-H1975 cells assessed as inhibition of cell growth measured after 72 hrs by MTT assay; format: functional, cell-based; details: NCI-H1975, 72 h
[22] = Antiproliferative activity against human HUVEC cells assessed as inhibition of cell growth measured after 72 hrs by MTT assay; format: toxicity, cell-based
NCI-H1650 = experiment: Antiproliferative activity against human NCI-H1650 cells assessed as inhibition of cell growth measured after 72 hrs by MTT assay; format: functional, cell-based; details: NCI-H1650, 72 h
HCC827 [23] = experiment: Induction of cell cycle arrest in human HCC827 cells assessed as accumulation of cells at S phase at 0.4 uM incubated for 24 hrs by PI staining based flow cytometry analysis (reference value: 26.41%); format: functional
HCT-116 = experiment: Antiproliferative activity against human HCT-116 cells assessed as inhibition of cell growth measured after 72 hrs by MTT assay; format: functional, cell-based; details: HCT-116, 72 h
NCI-H460 = experiment: Antiproliferative activity against human NCI-H460 cells assessed as inhibition of cell growth measured after 72 hrs by MTT assay; format: functional, cell-based; details: NCI-H460, 72 h
[24] = Antiproliferative activity against human Osimertinib-resistant HCC827 cell assessed as inhibition of cell growth measured after 72 hrs by MTT assay; format: functional, cell-based
[25] = Antiproliferative activity against human LO2 cells assessed as inhibition of cell growth measured after 72 hrs by MTT assay; format: toxicity, cell-based, L02
HCC827 [26] = experiment: Antiproliferative activity against human HCC827 cells assessed as inhibition of cell growth measured after 72 hrs by MTT assay; format: functional, cell-based; details: HCC827, 72 h

Compound: OCCCCC[P+](c1ccccc1)(c1ccccc1)c1ccccc1
- IC50 (A-375 [1]): > 40000 nM

Compound: N#CC(C#N)=C1C=C(/C=C/c2ccc(OC(=O)OCCCCCCCCCC[P+](c3ccccc3)(c3ccccc3)c3ccccc3)cc2)Oc2ccccc21.[Br-]
- Drug uptake [2]: 0.9
- Drug uptake [3]: Active
- Drug metabolism [4]: metabolite_detected

Compound: N#CC(C#N)=C1C=C(/C=C/c2ccc(OC(=O)OCCCCCCCCCC[P+](c3ccc(C(F)(F)F)cc3)(c3ccc(C(F)(F)F)cc3)c3ccc(C(F)(F)F)cc3)cc2)Oc2ccccc21.[Br-]
- Drug uptake [2]: 0.46
- Drug uptake [3]: Not_active
- Drug metabolism [4]: metabolite_detected

Compound: N#CC(C#N)=C1C=C(/C=C/c2ccc(O)cc2)Oc2ccccc21
- Drug uptake [5]: 0.21

Compound: O=C(O)CCCCC(CCSCc1ccccc1)SCc1ccccc1 (configuration not stated) [CPI 613]
- IC50 (A-375 [1]): > 100000 nM

Compound: OCCCCCCCCCC[P+](c1ccccc1)(c1ccccc1)c1ccccc1.[Br-]
- IC50 [6]: 570 nM
- Activity (HCC827 [7]): Active
- Activity (HCC827 [8]): 2.5%
- IC50 (MCF7): 310 nM
- Activity (Mitochondrial membrane): inactive
- Activity (HCC827 [9]): 0.7%
- Activity (HCC827 [10]): 6%
- IC50 (MDA-MB-231): 550 nM
- IC50 (NCI-H1299): > 5000 nM
- Drug uptake [11]: ~ 90%
- IC50 (A549): 1070 nM
- Activity (HCC827 [12]): 74.82%
- Activity (HCC827 [13]): inactive
- inhibition (HCC827 [14]): Weak_effect
- IC50 at 72 h [15]: 2790 nM
- Activity (HCC827 [16]): 4.02%
- IC50 (A-375 [1]): 410 nM
- Activity (HCC827 [17]): Active
- Drug uptake [18]: Not_active
- IC50 (A-375 [19]): 410 nM
- IC50 (SK-LU-1): 540 nM
- IC50 at 72 h [20]: 1140 nM
- viability at 1 µM (HCC827 [21]): 94.1%
- IC50 (NCI-H1975): 320 nM
- IC50 at 72 h [22]: 2380 nM
- IC50 (NCI-H1650): 710 nM
- Activity (HCC827 [23]): 19.19%
- IC50 (HCT-116): 940 nM
- IC50 (NCI-H460): 950 nM
- IC50 [24]: 340 nM
- IC50 at 72 h [25]: 3120 nM
- IC50 (HCC827 [26]): 230 nM

Compound: OCCCCCCCCCC[P+](c1ccc(C(F)(F)F)cc1)(c1ccc(C(F)(F)F)cc1)c1ccc(C(F)(F)F)cc1.[Br-]
- IC50 [6]: 5320 nM
- Activity (HCC827 [7]): Active
- Activity (HCC827 [8]): 1.3%
- IC50 (MCF7): 6450 nM
- Activity (Mitochondrial membrane): inactive
- Activity (HCC827 [9]): 2.87%
- Activity (HCC827 [10]): 4.38%
- IC50 (MDA-MB-231): 6290 nM
- IC50 (NCI-H1299): > 10000 nM
- Drug uptake [11]: 52%
- IC50 (A549): 6120 nM
- Activity (HCC827 [12]): 69.33%
- Activity (HCC827 [13]): inactive
- inhibition (HCC827 [14]): Weak_effect
- IC50 at 72 h [15]: 13800 nM
- Activity (HCC827 [16]): 2.72%
- Activity (HCC827 [17]): Active
- Drug uptake [18]: Not_active
- IC50 (A-375 [19]): 5400 nM
- IC50 (SK-LU-1): > 5000 nM
- IC50 at 72 h [20]: 6900 nM
- viability at 1 µM (HCC827 [21]): 92.1%
- IC50 (NCI-H1975): > 5000 nM
- IC50 at 72 h [22]: > 40000 nM
- IC50 (NCI-H1650): 1970 nM
- Activity (HCC827 [23]): 26.29%
- IC50 (HCT-116): 7730 nM
- IC50 (NCI-H460): 3090 nM
- IC50 [24]: > 5000 nM
- IC50 at 72 h [25]: > 40000 nM
- IC50 (HCC827 [26]): > 5000 nM
